According to PMC12217463, “Functional and structural analyses of amino acid sequence variation in PDC β-lactamase reveal different mechanistic pathways toward cefiderocol resistance in Pseudomonas aeruginosa” (Antimicrobial Agents and Chemotherapy, 2025):
Values after ≈ are worked out from the molar mass of the structure shown.

Tests used:
PAO1 + blaPDC A200T = experiment: MIC, broth microdilution; type: cell-based; conditions: Pseudomonas aeruginosa
Excerpt: (§1) We took advantage of a previously constructed and characterized laboratory collection of recombinant P. aeruginosa PAO1 isolates expressing different blaPDC variants, but specifically enriched for this work with additional variants, following the previously described methodology ([17]). […] The final collection comprised 40 recombinant isolates (20 in PAO1 and 20 in PAO ΔpiuC) producing the wild-type PDC-1 variant from PAO1 and 19 derivatives carrying specific amino acid substitutions previously associated with the development of resistance to ceftazidime/avibactam, ceftolozane/tazobactam, or cefiderocol: T70I, F121L, P153L, G156D, A200T, G202S, ΔG202-E219, G214R, P215L, P215S, ΔP215-G222, D217N, E219K, E219G, E219D, S226ins, L293P, F121L + E219K, and F121L + G222S.
(§2) The MICs of ceftazidime, ceftazidime/avibactam, ceftolozane/tazobactam, cefepime, and cefiderocol were determined in triplicate, for all isolates, by reference broth microdilution assays. Avibactam and tazobactam were fixed at 4 mg/L. All assays were performed using cation-adjusted Mueller-Hinton broth (CAMHB), except for cefiderocol, which was determined in all cases using iron-depleted CAMHB, prepared according to CLSI M100 guidelines ([40]). EUCAST v.15.0 clinical breakpoints and guidelines (http://www.eucast.org/clinical_breakpoints/) were used for reference purposes. Reference strains Escherichia coli ATCC 25922, Klebsiella pneumoniae ATCC 700603, and P. aeruginosa ATCC 27853 were used as controls.

PDC L293P = PDC L293P (Pseudomonas aeruginosa, UniProt P24735, L320P); experiment: Steady-state kinetics of purified β-lactamase; conditions: for kcat: direct hydrolysis at substrate concentration at least three times the Km
PDC-1 (WT) = PDC-1 (WT) (Pseudomonas aeruginosa, UniProt P24735); experiment: Steady-state kinetics of purified β-lactamase
[1] = tested on: P. aeruginosa isolates overproducing PDC variants; conditions: clinical strains, values generally remain below; cited from earlier work
[2] = tested on: PAO1 + blaPDC F121L + G220S; experiment: MIC, broth microdilution; type: cell-based; conditions: Pseudomonas aeruginosa
[3] = tested on: PAO ΔpiuC producing PDC F121L + E219K; experiment: Cefiderocol MIC, iron uptake-deficient host; type: cell-based; conditions: Pseudomonas aeruginosa
Excerpt: as §1, §2

[4] = tested on: PAO ΔpiuC producing PDC ∆P215-G222; experiment: Cefiderocol MIC, iron uptake-deficient host; type: cell-based; conditions: Pseudomonas aeruginosa
Excerpt: as §1, §2

[5] = tested on: PAO ΔpiuC producing PDC E219D; experiment: Cefiderocol MIC, iron uptake-deficient host; type: cell-based; conditions: Pseudomonas aeruginosa
Excerpt: as §1, §2

[6] = tested on: PAO ΔpiuC producing PDC L293P; experiment: Cefiderocol MIC, iron uptake-deficient host; type: cell-based; conditions: Pseudomonas aeruginosa
Excerpt: as §1, §2

[7] = tested on: PAO ΔpiuC producing PDC A200T; experiment: Cefiderocol MIC, iron uptake-deficient host; type: cell-based; conditions: Pseudomonas aeruginosa
Excerpt: as §1, §2

[8] = tested on: PAO ΔpiuC producing PDC F121L; experiment: Cefiderocol MIC, iron uptake-deficient host; type: cell-based; conditions: Pseudomonas aeruginosa
Excerpt: as §1, §2

[9] = tested on: PAO ΔpiuC producing PDC E219G; experiment: Cefiderocol MIC, iron uptake-deficient host; type: cell-based; conditions: Pseudomonas aeruginosa
Excerpt: as §1, §2

PAO ΔpiuC = experiment: Cefiderocol MIC, iron uptake-deficient host; type: cell-based; conditions: Pseudomonas aeruginosa
Excerpt: as §1, §2

[10] = tested on: PAO ΔpiuC producing PDC G156D; experiment: Cefiderocol MIC, iron uptake-deficient host; type: cell-based; conditions: Pseudomonas aeruginosa
Excerpt: as §1, §2

[11] = tested on: PAO ΔpiuC producing PDC P215S; experiment: Cefiderocol MIC, iron uptake-deficient host; type: cell-based; conditions: Pseudomonas aeruginosa
Excerpt: as §1, §2

[12] = tested on: PAO ΔpiuC producing PDC G202S; experiment: Cefiderocol MIC, iron uptake-deficient host; type: cell-based; conditions: Pseudomonas aeruginosa
Excerpt: as §1, §2

[13] = tested on: PAO ΔpiuC producing PDC S226ins; experiment: Cefiderocol MIC, iron uptake-deficient host; type: cell-based; conditions: Pseudomonas aeruginosa
Excerpt: as §1, §2

[14] = tested on: PAO ΔpiuC producing PDC G214R; experiment: Cefiderocol MIC, iron uptake-deficient host; type: cell-based; conditions: Pseudomonas aeruginosa
Excerpt: as §1, §2

[15] = tested on: PAO ΔpiuC producing PDC-1 (WT); experiment: Cefiderocol MIC, iron uptake-deficient host; type: cell-based; conditions: Pseudomonas aeruginosa
Excerpt: as §1, §2

[16] = tested on: PAO ΔpiuC producing PDC ∆G202-E219; experiment: Cefiderocol MIC, iron uptake-deficient host; type: cell-based; conditions: Pseudomonas aeruginosa
Excerpt: as §1, §2

[17] = tested on: PAO ΔpiuC producing PDC P153L; experiment: Cefiderocol MIC, iron uptake-deficient host; type: cell-based; conditions: Pseudomonas aeruginosa
Excerpt: as §1, §2

[18] = tested on: PAO ΔpiuC producing PDC E219K; experiment: Cefiderocol MIC, iron uptake-deficient host; type: cell-based; conditions: Pseudomonas aeruginosa
Excerpt: as §1, §2

[19] = tested on: PAO ΔpiuC producing PDC F121L + G220S; experiment: Cefiderocol MIC, iron uptake-deficient host; type: cell-based; conditions: Pseudomonas aeruginosa
Excerpt: as §1, §2

[20] = tested on: PAO ΔpiuC producing PDC P215L; experiment: Cefiderocol MIC, iron uptake-deficient host; type: cell-based; conditions: Pseudomonas aeruginosa
Excerpt: as §1, §2

[21] = tested on: PAO ΔpiuC producing PDC D217N; experiment: Cefiderocol MIC, iron uptake-deficient host; type: cell-based; conditions: Pseudomonas aeruginosa
Excerpt: as §1, §2

[22] = tested on: PAO ΔpiuC producing PDC T70I; experiment: Cefiderocol MIC, iron uptake-deficient host; type: cell-based; conditions: Pseudomonas aeruginosa
Excerpt: as §1, §2

[23] = tested on: PAO1 producing the Ω-loop variants ∆P215-G222, E219K, and F121L + E219K; experiment: MIC, group of Ω-loop variants in PAO1; type: cell-based; conditions: Pseudomonas aeruginosa; range over PAO1 producing ∆P215-G222, E219K and F121L + E219K
Excerpt: as §1
as §2, with “Reference strains Escherichia coli ATCC 25922, Klebsiella pneumoniae ATCC 700603, and P. aeruginosa ATCC 27853 were used as controls.” left out

[24] = tested on: E. cloacae AmpC variant with a ∆A294-P295 deletion; design: method as in PMID 32284381; conditions: relative to the parent enzyme; cited from earlier work
[25] = tested on: PAO ΔpiuC producing the ∆P215-G222, E219K, F121L + E219K, and L293P variants; experiment: MIC, group of variants in PAO ΔpiuC; type: cell-based; conditions: Pseudomonas aeruginosa
Excerpt: as §1
as §2, with “Reference strains Escherichia coli ATCC 25922, Klebsiella pneumoniae ATCC 700603, and P. aeruginosa ATCC 27853 were used as controls.” left out

PDC E219K = PDC E219K (Pseudomonas aeruginosa, UniProt P24735, E247K); experiment: Steady-state kinetics of purified β-lactamase; conditions: for kcat: direct hydrolysis at substrate concentration at least three times the Km; for Ratio for PDC E219K/PDC-1: ratio of kcat/Km (fold change in catalytic efficiency)

CC(C)(O/N=C(\C(=O)N[C@@H]1C(=O)N2C(C(=O)[O-])=C(C[N+]3(CCNC(=O)c4ccc(O)c(O)c4Cl)CCCC3)CS[C@H]12)c1csc(N)n1)C(=O)O [FDC, cefiderocol]
MIC (PAO1 + blaPDC A200T): 0.5 µg/mL (≈ 0.665 µM) | improvement in substrate binding affinity (Km decrease) (PDC L293P; PDC L293P relative to PDC-1): ≈ 32 fold | Km (PDC L293P; PDC L293P, antibiotics: determined as Ki app with nitrocefin as reporter substrate, 10 mM PBS, pH 7.4, room temperature): 2.69 ± 0.1 µM | kcat (PDC L293P; PDC L293P, 10 mM PBS, pH 7.4, room temperature, listed as Cefiderocol): 0.0036 ± 0.0001 s⁻¹ | kcat (PDC L293P; PDC L293P, 10 mM PBS, pH 7.4, room temperature, listed as cefiderocol): 0.0036 s⁻¹ | Ratio for PDC L293P/PDC-1 (PDC L293P; ratio of kcat/Km (fold change in catalytic efficiency)): 33.75 | kcat (PDC-1 (WT); PDC-1 (WT), direct hydrolysis at substrate concentration at least three times the Km, 10 mM PBS, pH 7.4, room temperature): 0.0036 s⁻¹ | Ratio (PDC-1 (WT); kcat/Km relative to PDC-1 (reference = 1)): 1 | MIC [1]: below 2 mg/L | MIC [2]: 0.25 µg/mL (≈ 0.332 µM) | MIC [3]: 64 µg/mL (≈ 85.1 µM) | MIC [4]: 32 µg/mL (≈ 42.5 µM) | MIC [5]: 8 µg/mL (≈ 10.6 µM) | MIC [6]: 32 µg/mL (≈ 42.5 µM) | MIC [7]: 8 µg/mL (≈ 10.6 µM) | MIC [8]: 8 µg/mL (≈ 10.6 µM) | MIC [9]: 8 µg/mL (≈ 10.6 µM) | MIC (PAO ΔpiuC): 2 µg/mL (≈ 2.66 µM) | MIC [10]: 8 µg/mL (≈ 10.6 µM) | MIC [11]: 8 µg/mL (≈ 10.6 µM) | MIC [12]: 8 µg/mL (≈ 10.6 µM) | MIC [13]: 8 µg/mL (≈ 10.6 µM) | MIC [14]: 16 µg/mL (≈ 21.3 µM) | MIC [15]: 4 µg/mL (≈ 5.32 µM) | MIC [16]: 8 µg/mL (≈ 10.6 µM) | MIC [17]: 8 µg/mL (≈ 10.6 µM) | MIC [18]: 32 µg/mL (≈ 42.5 µM) | MIC [19]: 8 µg/mL (≈ 10.6 µM) | MIC [20]: 8 µg/mL (≈ 10.6 µM) | MIC [21]: 8 µg/mL (≈ 10.6 µM) | MIC [22]: 8 µg/mL (≈ 10.6 µM) | MIC [23]: 2 to 4 µg/mL | increase in catalytic efficiency [24]: ≈ 19 fold | MIC [25]: 32 to 64 µg/mL (≈ 42.5 to 85.1 µM) | increase in kcat values (PDC E219K; PDC E219K relative to PDC-1): ≈ 125 fold | Km (PDC E219K; PDC E219K, antibiotics: determined as Ki app with nitrocefin as reporter substrate, 10 mM PBS, pH 7.4, room temperature): 466 ± 120 µM | kcat (PDC E219K; PDC E219K, 10 mM PBS, pH 7.4, room temperature, listed as Cefiderocol): 0.45 ± 0.03 s⁻¹ | kcat (PDC E219K; PDC E219K, 10 mM PBS, pH 7.4, room temperature, listed as cefiderocol): 0.45 s⁻¹ | Ratio for PDC E219K/PDC-1 (PDC E219K; listed as Cefiderocol): 24.00 | Ratio for PDC E219K/PDC-1 (PDC E219K; listed as cefiderocol): ≈ 24
